The text below walks through data of US11407741B2, “Compounds and their use as selective inhibitors of caspase-2” (priority 2017, dated 2022).

The target in test [1] is T1, Caspase-2 (Homo sapiens, UniProt P42575).
T1 construct: the Caspase-2 and Caspase-3 are human recombinant active enzymes; purchased Enzo Life ALX-201-057-U100
T1 sequence (P42575 170-325 limits assumed): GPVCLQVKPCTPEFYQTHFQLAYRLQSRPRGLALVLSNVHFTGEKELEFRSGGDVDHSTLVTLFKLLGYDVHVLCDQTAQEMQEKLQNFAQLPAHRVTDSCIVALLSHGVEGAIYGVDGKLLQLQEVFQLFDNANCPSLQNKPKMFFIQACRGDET
T1 sequence (P42575 348-452 limits assumed): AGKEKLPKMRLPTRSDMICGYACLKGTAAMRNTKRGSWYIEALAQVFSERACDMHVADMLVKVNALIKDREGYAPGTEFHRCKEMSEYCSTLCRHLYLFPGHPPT
Put plainly: Caspase-2 inhibition assay for irreversible inhibitors (kinact/KI, continuous method). The test is classed as biochemical. The protocol:
(§1) The efficiency of the comparative compound Δ2Me-TRP601, that is an already known group II Caspase inhibitor (inhibitor of Caspase-2, Caspase-3 and Caspase-7), has been assessed by a similar protocol described in Chauvier et al., 2011 Cell Death Dis 2011, 2:e203.
(§2) In this example, the Caspase-2 and Caspase-3 are human recombinant active enzymes that are respectively provided by Enzo Life® (ALX-201-057-U100) and R&D Systems® (707-C3-010/CF).
Caspase-2 is used at a final concentration of 0.1 nM in a “Caspase-2 buffer” containing 20 mM HEPES (pH 7.4), 5 mM DTT, 2 mM EDTA, 0.1% CHAPS and 800 mM succinate. Caspase-3 is used at a final concentration of 0.5 nM in a “Caspase-3 buffer” containing 20 mM HEPES (pH 7.4), 0.1% CHAPS, 5 mM DTT, and 2 mM EDTA.
The peptide substrates used for the enzymatic activity measurements are Ac-DEVD-AMC and Ac-VDVAD-AMC commercialized by EnzoLife® (respectively referenced ALX-260-031-M005 and ALX-260-060-M005). They are fluorogenic due to the presence of their AMC (7-amino-4-methylcoumarin) end group. The releasing of AMC enables to follow the enzymatic activity in fluorescence unit RFU over time in a 96-wells microplate.
The fluorescence values are measured at 37° C. with a spectrofluorometer with a microplate reader BMG FLUOstar OPTIMA. This apparatus is driven by the software Biolise® and is equipped with thermoelectric cooling device by Peltier effect. The mathematical analyses of the experimental data are done with the software Kaleidagraph®.
The inhibitory properties of the tested compounds are evaluated by the determination of the kinact/KI ratio regarding either Caspase-2 or Caspase-3 wherein: • kinact is the maximal inactivation rate constant, and • KI is the dissociation constant according to:
Said ratio is measured according to the continuous method (Allison R D. Curr Protoc Protein Sci. 2001 May; Chapter 3:Unit 3.5.; Chauvier et al., 2011 Cell Death Dis 2:e203; Tan et al., J Med Chem 2015, […]).
Briefly, Caspases activities were determined by monitoring the hydrolysis of fluorogenic substrates (λexc=355 nm, λem=460 nm) as a function of time, in the presence of untreated Caspases (control) or Caspases that had been incubated with a test compound, for 30 min minimum at 37° C. using a BMG Fluostar microplate reader (black 96-well microplates) and the initial velocity (V0) was determined from the linear portion of the progress curve.
Substrates and compounds were previously dissolved in DMSO at 10 mM, with the final solvent concentration kept at lower 4% (v/v). V0, relative velocities, KM and IC50 were determined from experimental data using Mars data Analysis 2.0 and Kaleidagraph softwares.
Inhibitor binding affinity (dissociation constant, KI) and first-order rate constant (k3) parameters were determined for Caspase-2 and Caspase-3 using the progress curve method. The ratio k3/KI was obtained by fitting the experimental data to the equations (F.U., fluorescence unit): […]
A continuous method of determination of the kinact/KI ratio was used for evaluating the inhibitory activity of the tested compounds against Caspase-2 and Caspase-3.
The reaction mixture is prepared by letting the enzyme and the buffer incubate at 37° C.
The tested inhibitory compounds are prepared at different concentrations (¼ IC50; ½ IC50; IC50; 2 IC50; 4 IC50) and put in the microplate.
Then the reaction mixture comprising the enzyme, the buffer and the substrate is rapidly added in the wells.
The activities of the enzyme are measured between 45 and 60 minutes.
The RFU (Relative Fluorescence Units)=f(times) curves are traced for each concentration of tested molecule according to the following equation: ((((−V0)*(exp(−kobs*m0)))+V0)/kobs*)+RFU0
in which: • V0 corresponds to the initial rate (RFU·s^−1) in the concentration of 0 of the tested inhibitory compound; • kobs is the inactivation rate constant; • RFU0 is the fluorescence value at t=0 min; and • m0 is the variable i.e. the inhibitor concentration.

The target in test [2] is T2, Caspase-3 (Homo sapiens, UniProt P42574).
T2 construct: the Caspase-2 and Caspase-3 are human recombinant active enzymes; purchased R&D Systems 707-C3-010/CF
T2 sequence (P42574 29-175 limits assumed): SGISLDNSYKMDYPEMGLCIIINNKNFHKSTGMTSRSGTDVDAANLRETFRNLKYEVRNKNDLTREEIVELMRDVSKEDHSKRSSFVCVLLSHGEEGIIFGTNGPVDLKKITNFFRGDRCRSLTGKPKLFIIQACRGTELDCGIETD
T2 sequence (P42574 176-277 limits assumed): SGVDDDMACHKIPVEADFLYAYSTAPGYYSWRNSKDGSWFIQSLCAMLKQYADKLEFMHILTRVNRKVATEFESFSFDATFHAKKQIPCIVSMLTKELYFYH
Put plainly: Caspase-3 inhibition assay for irreversible inhibitors (kinact/KI, continuous method). The test is classed as biochemical. As to conditions: human recombinant Caspase-3 0.5 nM, 37° C. The protocol:
as §1, §2
Caspase-2 is used at a final concentration of 0.1 nM in a “Caspase-2 buffer” containing 20 mM HEPES (pH 7.4), 5 mM DTT, 2 mM EDTA, 0.1% CHAPS and 800 mM succinate. […]
The peptide substrates used for the enzymatic activity measurements are Ac-DEVD-AMC and Ac-VDVAD-AMC commercialized by EnzoLife® (respectively referenced ALX-260-031-M005 and ALX-260-060-M005). […] The releasing of AMC enables to follow the enzymatic activity in fluorescence unit RFU over time in a 96-wells microplate.
The fluorescence values are measured at 37° C. with a spectrofluorometer with a microplate reader BMG FLUOstar OPTIMA. […]
The inhibitory properties of the tested compounds are evaluated by the determination of the kinact/KI ratio regarding either Caspase-2 or Caspase-3 wherein: • kinact is the maximal inactivation rate constant, and • KI is the dissociation constant according to: […]
The activities of the enzyme are measured between 45 and 60 minutes. […]

Test [3] concerns HeLa cells. Put plainly: Protection against vincristine-induced cell death, propidium iodide flow cytometry. The test is classed as cell-based, human. Set-up: Index of cell death: key to the marks not given beside the values. The settings on record: 20 nM Vincristine for 48 hours, propidium iodide positive cells. The method, then: Human HeLa cells are used in this model. HeLa cells (cervical cancer cell line) were obtained from American Type Cell Collection (ATCC), and were cultured in Dulbecco's Modified Eagle Medium (DMEM, High Glucose, GlutaMAX™, Pyruvate) (Gibco, Life technologies), supplemented with 10% FCS and antibiotics (Gibco, Life technologies).
Human HeLa cells are treated with a solution of Vincristine (Sigma Aldrich) (diluted in water at 5 mM). Vincristine works partly by binding to the Tubulin protein, stopping the cell from separating its chromosomes during the metaphase; the cell then undergoes apoptosis through a caspase-dependent process.
Propidium iodide (PI) (Sigma Aldrich) is used to evaluate plasma membrane permeabilisation, a sign of cell death.
24 hours before pharmacological treatment, HeLa cells were plated into 24-well plates. […] Cells were exposed or not (control), to 20 nM Vincristine for 48 hours.
The content of each well is collected is added to PBS and then centrifuged (900 rpm; 5 min).
The pellet obtained is put into 300 μL of a medium comprising propidium iodide and incubated (37° C., 5% CO2) in the dark for 5 minutes and then subjected to flow cytometry analysis.
Fluorescence-Activated Cell Sorting was performed using a FACSCalibur cytometer (Becton Dickinson, San Jose, Calif.). For each sample, data from 5,000 Cells were registered and analyzed with the CellQuest Pro software (Becton Dickinson). Analysis included FSC (Forward Scatter/relating to the cells'size) and SSC (Side Scatter/relating to the cells' granularity) parameters together with FL-1 and FL-3 channel.
The percentage of propidium iodide positive cells gives an estimation of cell death.

Where a SMILES comes first, the peptide text is derived from it. The star is where a group is joined. X2 = O=C(O)C[C@H](N*)C(=O)COc1c(F)cccc1F; Quinaldoyl = O=C(c1ccc2ccccc2n1)*

With `CC(C)[C@H](NC(=O)c1ccc2ccccc2n1)C(=O)N[C@@H](CC(=O)O)C(=O)N[C@H](C(=O)N[C@@H](C)C(=O)N[C@@H](CC(=O)O)C(=O)COc1c(F)cccc1F)C(C)C` [Δ2Me-TRP-601, reference compound] (Quinaldoyl-VDVA-X2), the “Selectivity for Caspase 2” value in test [1] (comparison of kinact/KI ratios regarding caspase 2 and 3) is reported as “no”. Moreover, the “k3/KI Casp2” value in test [1] (human recombinant Caspase-2 0.1 nM, 37° C.) was 1 586 020 M^−1 · s^−1. In test [1] (ratio of k3/KI Casp2 to Casp3), the “Selectivity ratio (C2/C3)” value is 0.98. Moreover, the “k3/KI Casp3” value in test [2] is listed as 1 613 405 M^−1 · s^−1.

In the case of `CC[C@]1(O)C[C@H]2CN(CCc3c([nH]c4ccccc34)[C@@](C(=O)OC)(c3cc4c(cc3OC)N(C=O)[C@H]3[C@@](O)(C(=O)OC)[C@H](OC(C)=O)[C@]5(CC)C=CCN6CC[C@]43[C@@H]65)C2)C1` [Vincristine alone, Vincristine, reference compound], the “Index of cell death” value in test [3] is given as “++++”.
